In publication PMC9979163, “Discovery and functional characterization of N-(thiazol-2-yl)-benzamide analogs as the first class of selective antagonists of the Zinc-Activated Channel (ZAC)” (Biochemical pharmacology, 2021):

What was measured:
urease = tested on: urease; parameters: method as in PMID 30086567; details: Fig. 10; cited from earlier work
[1] = target: metabotropic glutamate receptor 1; parameters: method as in PMID 19674894; details: Fig. 10; cited from earlier work
glucokinase = target: glucokinase; parameters: method as in PMID 19282189; details: Fig. 10; cited from earlier work
Adenosine A2A receptor = target: Adenosine A2A receptor; parameters: method as in PMID 21210664; details: Fig. 10; cited from earlier work
stearoyl-CoA desaturase = target: stearoyl-CoA desaturase; parameters: method as in PMID 19541482; details: Fig. 10; cited from earlier work
h5-HT3A = target: T1, h5-HT3A (Homo sapiens, UniProt P46098); assay: FMP assay at h5-HT3A-HEK293 cells; type: cell-based; details: concentrations up to 300 μM, data not shown
T1 construct: expressed in transfected cells
T1 sequence (P46098 24-478): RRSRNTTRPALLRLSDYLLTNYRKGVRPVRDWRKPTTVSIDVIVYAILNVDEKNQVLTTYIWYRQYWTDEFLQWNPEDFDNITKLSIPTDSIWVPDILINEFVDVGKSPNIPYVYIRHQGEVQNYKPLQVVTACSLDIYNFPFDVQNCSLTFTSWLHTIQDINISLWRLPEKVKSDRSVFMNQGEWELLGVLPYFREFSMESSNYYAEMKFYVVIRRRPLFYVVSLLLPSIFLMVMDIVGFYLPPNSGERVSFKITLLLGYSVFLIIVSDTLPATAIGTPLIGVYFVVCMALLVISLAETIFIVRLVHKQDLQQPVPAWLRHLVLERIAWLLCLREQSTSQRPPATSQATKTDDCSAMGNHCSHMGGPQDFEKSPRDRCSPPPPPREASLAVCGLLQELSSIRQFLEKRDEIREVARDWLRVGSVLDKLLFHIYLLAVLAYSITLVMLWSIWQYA

ZAC [2] = target: T2, ZAC (Homo sapiens, UniProt Q401N2); assay: FMP assay at ZAC-HEK293 cells; type: cell-based; details: ZAC-HEK293 cells, FMP assay, n = 4
T2 sequence (Q401N2 26-412): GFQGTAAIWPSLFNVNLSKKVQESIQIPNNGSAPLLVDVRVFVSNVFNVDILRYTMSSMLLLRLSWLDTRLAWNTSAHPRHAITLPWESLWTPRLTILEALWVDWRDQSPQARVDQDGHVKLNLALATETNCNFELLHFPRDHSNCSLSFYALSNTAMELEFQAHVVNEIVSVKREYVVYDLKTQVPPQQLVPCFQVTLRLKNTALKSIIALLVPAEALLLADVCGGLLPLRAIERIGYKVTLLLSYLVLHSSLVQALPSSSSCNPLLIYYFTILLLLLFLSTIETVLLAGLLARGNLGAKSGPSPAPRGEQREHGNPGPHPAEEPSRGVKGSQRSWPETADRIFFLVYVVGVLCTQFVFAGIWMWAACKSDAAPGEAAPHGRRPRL
Description: The screening of the 1,680 compounds in the compound library for antagonist activity at the ZAC-HEK293 cell line was performed in the FMP assay essentially as previously described. The day before the assay, cells were split into poly-D-lysine-coated black 96-well plates with clear bottoms (BD Biosciences, Palo Alto, CA) (6 × 10^4 cells/well). The following day, the culture medium was aspirated and the wells were washed once with 100 μl assay buffer (140 mM NaCl, 4.7 mM KCl, 2.5 mM CaCl2, 1.2 mM MgCl2, 11 mM HEPES, 10 mM D-glucose, pH 7.4), after which 100 μl assay buffer supplemented with FMP dye (0.5 mg/ml) and the various test compounds were added to the wells. The plate was then incubated at 37 °C for 30 min and assayed in a NOVOStar plate reader (BMG Labtechnologies, Offenburg, Germany) measuring emission at 560 nm caused by excitation at 530 nm before and up to 1 min after the addition of 33 μl of agonist solution. In the screening, the 1,680 compounds in the compound library were tested at assay concentrations in the 10–30 μM range, using Cu^2+ as agonist at an assay concentration of 200 μM.
Data from the FMP assay was analysed using KaleidaGraph 3.08 (Synergy Software, Reading, PA). Concentration-response curves for Cu^2+ and concentration-inhibition curves for compound 1 were constructed based on the difference in the relative fluorescence units (RFU) between the maximal fluorescence recorded before and after application of Cu^2+. The data were fitted to sigmoidal curves with variable slopes using nonlinear regression, and EC50 (Cu^2+) and IC50 (compound 1) values were derived from these equations.

HEK293 cells = assay: FMP assay at HEK293 cells; type: cell-based; details: concentrations up to 300 μM, data not shown
Hec1/Nek2 interaction = tested on: Hec1/Nek2 interaction; parameters: method as in PMID 18922912; details: Fig. 10; cited from earlier work
Adenosine A1 receptor = target: Adenosine A1 receptor; parameters: method as in PMID 11262085; details: Fig. 10; cited from earlier work
necroptosis = target: necroptosis; parameters: method as in PMID 30400632; details: Fig. 10; cited from earlier work
ZAC [3] = target: T2, ZAC; details: Zn2+ (1 mM) as agonist, TEVC; cited from earlier work

In the case of `O=C(Nc1nc(Cc2nnc(SCc3ccc(F)cc3)o2)cs1)c1ccccc1` [Compound 7h], the IC50 (urease) is listed as 2200 nM.
For `CC(C)Nc1cc(-c2csc(N(C)C(=O)c3ccc(F)cc3)n2)ncn1` [Compound 27], the IC50 [1] is given as 5.1 nM.
For `Cc1csc(NC(=O)c2cc(Oc3ccc(S(C)(=O)=O)cc3)cc(OC(C)C)c2)n1` [Compound 27e], the EC50 (glucokinase) is given as 330 nM.
In the case of `CC(C)(C)CC(=O)Nc1c(F)cc(C(=O)Nc2nccs2)cc1F` [Compound 28], the Ki (Adenosine A2A receptor) is given as 5.9 nM.
In the case of `CCNc1ccc(C(=O)Nc2ncc(Cc3cccc(C(F)(F)F)c3)s2)cc1OCCO` [Compound 37c], the IC50 (stearoyl-CoA desaturase) is listed as 0.04 nM.
In the case of `[Cl][Cu][Cl]` [Cu^2+, CuCl2], the Agonist response (h5-HT3A) is reported as “did not evoke any responses”, the “pEC50 ± S.E.M. (agonist)” value (ZAC [2]) is reported as 4.59 ± 0.17 and the EC50 (ZAC [2]; read-out: EC50 (agonist)) is reported as 26 µM. The Agonist response (HEK293 cells) was “did not evoke any responses”.
In the case of `Cc1ccc(-c2csc(NC(=O)c3ccccc3)n2)c(C)c1` [INH1], the IC50 (Hec1/Nek2 interaction) is given as “in uM range”.
For `COc1ccc(C(=O)Nc2nc(-c3ccccc3)cs2)cc1` [LUF5433], the IC50 (Adenosine A1 receptor) is listed as 32 nM.
For `CCn1c(SCc2ccc(C(=O)Nc3nccs3)cc2)nnc1-c1ccc(N)cc1` [NTB451], the Ki (necroptosis) is listed as 7.9 µM.
For `COc1cc2c3cc1Oc1cc(ccc1O)C[C@@H]1c4c(cc(OC)c(O)c4Oc4ccc(cc4)C[C@@H]3N(C)CC2)CC[N+]1(C)C` [TC, tubocurarine], the Fitted inhibition range (ZAC [3]) is given as ~ 94%.
